Each structure is given as a SMILES string.

The test system of this experiment is HuVEC cells / chorioallantoic membrane. Briefly: in vitro tube formation and CAM assays with tumor-derived conditioned media. In kind it is cell-based. The settings on record: data not shown. On the procedure:
In this study, the potential impact of PDZ1i on tumor-derived angiogenesis in a prostate cancer context was explored. The experimental strategy is outlined in FIG. 18A. […] This observation was also validated in different PC cells by qPCR. Additionally, since VEGF-A is a potent angiogenic factor and a downstream target of STAT3, the expression pattern of VEGF-A at both mRNA and protein levels was also evaluated in different PC cells, including mda-9 stably expressing RWPE-1 cells (FIG. 18C).
Tube formation and CAM assays were performed as described previously^27. Briefly, tumor-derived conditioned media were collected after 24 h of treatment (either DMSO or PDZ1i) and concentrated. Equal amounts of protein (50 μg) containing conditioned media were mixed with basal media and incubated with HuVEC cells on Matrigel layers. Photographs were taken after 6 h. In CAM assays, DMSO- or PDZ1 i-treated tumor cell-derived conditioned media were implanted on the CAM of 8 day-old fertilized eggs. Photographs were taken on day 12, 4 days after applying conditioned media.

In the case of `Cc1cc(NC(=O)c2nc3[nH]c4c(c(=O)n3n2)CCC4)c(C)cc1NC(=O)CCc1nnc(-c2ccccc2)o1` [113B7, N-(2,5-dimethyl-4-(3-(5-phenyl-1,3,4-oxadiazol-2-yl)propanamido)phenyl)-8-oxo-5,6,7,8-tetrahydro-4H-cyclopenta[d][1,2,4]triazolo[1,5-a]pyrimidine-2-carboxamide], the “angiogenic activity of treated tumor cell-derived conditioned media” value is “anti-angiogenic properties”.

(Values after patent US11008325B2, “Inhibitors of cancer invasion, attachment, and/or metastasis” (VIRGINIA COMMONWEALTH UNIVERSITY, priority 2016, dated 2021).)
